Data reported in US20230295109A1, “PYRIDINONE COMPOUNDS FOR THE TREATMENT OF AUTOIMMUNE DISEASE” (F. Hoffmann-La Roche AG, priority 2020, published 2023).

Tests used:
[1] = molecular target: T1, TLR9 (Homo sapiens, UniProt Q9NR96); assay: Human PBMC cell-based assay, TLR9 (CpG ODN 2216); set-up: These cells express TLR7, TLR8, or TLR9, and therefore are natural responders to respective ligand stimulation; endogenous in cells; host or cells: primary human PBMC from healthy donor whole blood; settings: CpG ODN 2216 at 1 µM, overnight, cytokine levels, read-out: hPBMC/TLR9 IC50
T1 sequence (Q9NR96 26-1032): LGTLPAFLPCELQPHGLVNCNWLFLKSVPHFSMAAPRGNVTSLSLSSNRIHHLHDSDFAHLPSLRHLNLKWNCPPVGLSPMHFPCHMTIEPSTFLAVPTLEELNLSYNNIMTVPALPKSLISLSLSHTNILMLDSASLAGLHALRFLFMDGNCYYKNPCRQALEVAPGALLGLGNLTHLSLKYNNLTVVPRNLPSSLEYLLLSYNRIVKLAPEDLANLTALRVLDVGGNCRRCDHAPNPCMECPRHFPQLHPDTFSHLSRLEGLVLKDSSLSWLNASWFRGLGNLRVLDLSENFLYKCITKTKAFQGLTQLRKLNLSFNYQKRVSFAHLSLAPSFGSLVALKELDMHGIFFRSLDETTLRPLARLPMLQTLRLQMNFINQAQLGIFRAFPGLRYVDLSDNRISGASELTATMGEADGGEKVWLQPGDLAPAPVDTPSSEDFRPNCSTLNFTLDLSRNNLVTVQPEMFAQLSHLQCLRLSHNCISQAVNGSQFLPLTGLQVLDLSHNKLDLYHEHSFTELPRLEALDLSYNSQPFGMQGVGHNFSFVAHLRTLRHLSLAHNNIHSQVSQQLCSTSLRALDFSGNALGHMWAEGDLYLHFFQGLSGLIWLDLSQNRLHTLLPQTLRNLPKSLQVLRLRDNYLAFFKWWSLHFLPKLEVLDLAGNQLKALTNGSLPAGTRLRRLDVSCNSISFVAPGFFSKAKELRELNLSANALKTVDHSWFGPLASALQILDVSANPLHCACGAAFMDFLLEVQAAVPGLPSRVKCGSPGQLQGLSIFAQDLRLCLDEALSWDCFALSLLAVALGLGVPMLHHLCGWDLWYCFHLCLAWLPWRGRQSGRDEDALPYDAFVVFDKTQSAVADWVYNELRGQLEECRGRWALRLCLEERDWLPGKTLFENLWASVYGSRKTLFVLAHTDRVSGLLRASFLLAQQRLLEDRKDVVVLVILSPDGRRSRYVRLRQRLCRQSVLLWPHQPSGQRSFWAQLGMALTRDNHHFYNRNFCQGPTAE
Source text: (§1) Unlike the HEK reporter cell lines, human peripheral blood mononuclear cell (PBMC) represents primary human immune cells in blood mainly consisting of lymphocytes, monocytes, and dendritic cells. These cells express TLR7, TLR8, or TLR9, and therefore are natural responders to respective ligand stimulation. Upon activation of these TLRs, PBMCs secrete similar cytokines and chemokines in vitro and in vivo, and therefore the in vitro potency of a TLR7/8/9 antagonist in human PBMC is readily translatable to its pharmacodynamics response in vivo.
(§2) Human peripheral blood mononuclear cells (PBMC) were isolated from freshly-drawn lithium-heparinized (Lithium Heparin Plus blood Collection tube, BD Vacutainer®) healthy donor whole blood by density gradient (Ficoll-PaqueTM PLUS, GE Healthcare life Sciences). Briefly, […] was diluted with 25 mL PBS (without Ca^2+, Mg^2+) in a 50 mL conical tube with porous barrier (Leucosep tube, Greiner bio-one), where 15.5 mL Ficoll-Paque was under laid after spinning. Tubes were centrifuged for 20 minutes at 800×g (1946 rpm) with the brake in the off position, and PBMC were collected from the buffy coat. Cells were then washed twice in PBS, and red blood cells were lysed by suspension in 2 mL (Red Blood Cell Lysis Buffer, Alfa Aesar) for 5-10 minutes at room temperature. After a final wash in PBS, PBMC were resuspended at a final concentration of 2×10^6 cells/mL in RPMI-1640 media with GlutaMAXTM (Gibco) supplemented with 10% Fetal Bovine Serum (Sigma) and plated at 150µL/well (3×10^5 cells/well) in tissue culture treated round bottom 96-well plates (Corning Incorporated). Antagonist compounds (compounds of this invention) solubilized and serial diluted in 100% DMSO were added in duplicate to cells to yield a final concentration of 1% DMSO (v/v). PBMC were incubated with antagonist compounds for 30 minutes at 37° C., 5% CO2 before adding various TLR agonist reagents in 48 µL complete media per well as follows (final concentrations indicated): CpG ODN 2216 (InvivoGen) at 1 µM for TLR9, ORN 06/LyoVec (InvivoGen) at 1 µg/mL for TLR8 and R848 (InvivoGen) at 1 µg/mL for TLR7 and TLR8. PBMC were incubated overnight at 37° C. with 5% CO2. Cell culture supernatants were collected, and levels of various human cytokines were assessed by Luminex assay (ProcartaPlexTM Multiplex Immunoassay, Invitrogen) or ELISA procedure according to the manufacturer’s recommended protocol (eBioscience, ThermoFisher Scientific). Viability of the cells was also checked with Cell Viability Assay (CellTiter Glo®Luminescent Cell Viability Assay, Promega).

[2] = system: TLR7 and TLR8; assay: Human PBMC cell-based assay, TLR7 and TLR8 (R848); settings: R848 at 1 µg/mL, overnight, cytokine levels, read-out: hPBMC/TLR78 IC50
Source text: as §1, §2

Row | Compound | IC50 [1] | IC50 [2]
1 | CCc1nc(N2CCN(Cc3cnc(N4CC5(CNCCO5)C4)nc3)CC2)ccc1-c1cc(C)c(=O)n(C)c1 [Example 1, 5-[2-ethyl-6-[4-[[2-(5-oxa-2,8-diazaspiro[3.5]nonan-2-yl)pyrimidin-5-yl]methyl]piperazin-1-yl]-3-pyridyl]-1,3-dimethyl-pyridin-2-one] | 388 nM | –
2 | CCc1nc(N2CCN(Cc3ccc(N4CC5(CNCCO5)C4)nc3)CC2)ccc1-c1cc(C)c(=O)n(C)c1 [Example 2, 5-[2-ethyl-6-[4-[[6-(5-oxa-2,8-diazaspiro[3.5]nonan-2-yl)-3 pyridyl]methyl]piperazin-1-yl]-3-pyridyl]-1,3-dimethyl-pyridin-2-one] | 362 nM | 7 nM
3 | CCc1nc(N2CCN(Cc3cnc(N4CC(C)(N)C4)nc3)CC2)ccc1-c1cc(C)c(=O)n(C)c1 [Example 3, 5-[6-[4-[[2-(3-amino-3-methyl-azetidin-1-yl)pyrimidin-5-yl]methyl]piperazin-1-yl]-2-ethyl-3-pyridyl]-1,3-dimethyl-pyridin-2-one] | 377 nM | 21 nM
4 | Cc1cc(-c2ccc(N3CCN(Cc4cnc(N5CC6(CNCCO6)C5)nc4)CC3)nc2C(C)C)cn(C)c1=O [Example 6, 5-[2-isopropyl-6-[4-[[2-(5-oxa-2,8-diazaspiro[3.5]nonan-2-yl)pyrimidin-5-yl]methyl]piperazin-1-yl]-3-pyridyl]-1,3-dimethyl-pyridin-2-one] | 730 nM | –
5 | Cc1cc(-c2ccc(N3CCN(Cc4ccc(N5CCNCC5)cn4)CC3)nc2C(C)C)cn(C)c1=O [Example 7, 5-[2-isopropyl-6-[4-[(5-piperazin-1-yl-2-pyridyl)methyl]piperazin-1-yl]-3-pyridyl]-1,3-dimethyl-pyridin-2-one] | 101 nM | –

More lines, now with the values ahead:

Row | IC50 [1] | IC50 [2] | Compound
6 | 47 nM | 0.4 nM | Cc1cc(-c2ccc(N3CCN(Cc4cnc(N5CCNCC5)nc4)CC3)nc2C(C)C)cn(C)c1=O [Example 9, 5-[2-isopropyl-6-[4-[(2-piperazin-1-ylpyrimidin-5-yl)methyl]piperazin-1-yl]-3-pyridyl]-1,3-dimethyl-pyridin-2-one]
7 | 115 nM | 12 nM | Cc1cc(-c2ccc(N3CCN(Cc4ncc(N5CCNCC5)cn4)CC3)nc2C(C)C)cn(C)c1=O [Example 12, 5-[2-isopropyl-6-[4-[(5-piperazin-1-ylpyrimidin-2-yl)methyl]piperazin-1-yl]-3-pyridyl]-1,3-dimethyl-pyridin-2-one]
8 | 263 nM | 2 nM | Cc1cc(-c2ccc(N3CCN4CCN(c5ccc(N6CCNCC6)nc5)CC4C3)nc2C(C)C)cn(C)c1=O (centres unmarked) [Example 16, 5-[2-isopropyl-6-[8-(6-piperazin-1-yl-3-pyridyl)-3,4,6,7,9,9a-hexahydro-1H-pyrazino[1,2-a]pyrazin-2-yl]-3-pyridyl]-1,3-dimethyl-pyridin-2-one]
9 | 700 nM | – | Cc1cc(-c2ccc(N3CCC(N4CCNCC4)CC3)nc2C(C)C)cn(C)c1=O [Example 18, 5-[2-isopropyl-6-(4-piperazin-1-yl-1-piperidyl)-3-pyridyl]-1,3-dimethyl-pyridin-2-one]
